Results reported in ChEMBL document CHEMBL1909046, “DrugMatrix in vitro pharmacology data”.
Where a SMILES comes first, the peptide text is derived from it. Bridges are numbered along the chain shown (N, C = ends). [ ]: non-standard residue; d: D form. The star is where a group is joined. Threoninol(2S,3R) = C[C@@H](O)[C@H](CO)N*

Key:
[1] = target: T1, Alpha-1B adrenergic receptor (Rattus norvegicus, UniProt P15823); assay: DRUGMATRIX: Alpha-1B adrenergic receptor radioligand binding (ligand: prazosin); assay type: cell membranes, Wistar, Liver, Membrane; conditions: Not Active = under 50% inhibition at 10 µM
T1 sequence (P15823 whole entry): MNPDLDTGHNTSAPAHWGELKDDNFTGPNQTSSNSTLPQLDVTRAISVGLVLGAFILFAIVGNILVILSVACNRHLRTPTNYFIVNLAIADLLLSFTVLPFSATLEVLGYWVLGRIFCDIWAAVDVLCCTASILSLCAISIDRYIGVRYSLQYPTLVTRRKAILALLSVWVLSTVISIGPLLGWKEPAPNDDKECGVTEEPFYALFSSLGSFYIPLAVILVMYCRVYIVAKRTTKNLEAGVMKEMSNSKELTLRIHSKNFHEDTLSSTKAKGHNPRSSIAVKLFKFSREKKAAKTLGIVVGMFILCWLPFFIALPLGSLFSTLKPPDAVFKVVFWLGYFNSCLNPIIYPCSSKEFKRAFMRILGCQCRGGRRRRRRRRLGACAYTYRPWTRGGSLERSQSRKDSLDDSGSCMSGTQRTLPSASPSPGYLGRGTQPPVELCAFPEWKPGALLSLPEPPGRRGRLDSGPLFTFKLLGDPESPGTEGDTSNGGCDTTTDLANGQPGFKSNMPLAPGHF

Thromboxane-A synthase = target: T2, Thromboxane-A synthase (Homo sapiens, UniProt P24557); assay: biochemical; assay type: tissue-based, Platelet; conditions: platelet;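 also: enzyme inhibition assay with PGH2 supplied as substrate; in other assays of this panel Not Active means under 50% inhibition at 10 µM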
T2 sequence (P24557 whole entry): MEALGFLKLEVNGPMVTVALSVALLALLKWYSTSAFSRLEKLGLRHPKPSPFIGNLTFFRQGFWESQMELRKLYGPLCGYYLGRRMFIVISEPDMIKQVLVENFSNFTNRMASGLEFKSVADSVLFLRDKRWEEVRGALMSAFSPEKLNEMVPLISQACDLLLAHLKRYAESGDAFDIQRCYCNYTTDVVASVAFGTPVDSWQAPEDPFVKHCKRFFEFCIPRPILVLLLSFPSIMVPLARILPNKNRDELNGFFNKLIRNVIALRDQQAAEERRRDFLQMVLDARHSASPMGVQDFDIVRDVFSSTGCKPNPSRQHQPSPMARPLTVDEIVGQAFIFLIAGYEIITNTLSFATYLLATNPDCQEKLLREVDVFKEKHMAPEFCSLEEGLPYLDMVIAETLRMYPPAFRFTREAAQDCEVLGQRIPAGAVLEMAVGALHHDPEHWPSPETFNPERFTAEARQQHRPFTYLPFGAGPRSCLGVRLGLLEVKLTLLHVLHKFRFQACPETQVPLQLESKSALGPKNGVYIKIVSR

D(3) dopamine receptor = D(3) dopamine receptor (Homo sapiens, UniProt P35462); assay: DRUGMATRIX: Dopamine D3 radioligand binding (ligand: [3H] Spiperone); assay type: cell membranes, CHO, Membrane; conditions: cho
[2] = target: T3, Angiotensin-converting enzyme (Oryctolagus cuniculus, UniProt P12822); assay type: tissue-based, Lung;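 also: enzymatic inhibition of angiotensin-converting enzyme measured with FAPGG as the substrate; in other assays of this panel Not Active means under 50% inhibition at 10 µM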
T3 sequence (P12822 whole entry): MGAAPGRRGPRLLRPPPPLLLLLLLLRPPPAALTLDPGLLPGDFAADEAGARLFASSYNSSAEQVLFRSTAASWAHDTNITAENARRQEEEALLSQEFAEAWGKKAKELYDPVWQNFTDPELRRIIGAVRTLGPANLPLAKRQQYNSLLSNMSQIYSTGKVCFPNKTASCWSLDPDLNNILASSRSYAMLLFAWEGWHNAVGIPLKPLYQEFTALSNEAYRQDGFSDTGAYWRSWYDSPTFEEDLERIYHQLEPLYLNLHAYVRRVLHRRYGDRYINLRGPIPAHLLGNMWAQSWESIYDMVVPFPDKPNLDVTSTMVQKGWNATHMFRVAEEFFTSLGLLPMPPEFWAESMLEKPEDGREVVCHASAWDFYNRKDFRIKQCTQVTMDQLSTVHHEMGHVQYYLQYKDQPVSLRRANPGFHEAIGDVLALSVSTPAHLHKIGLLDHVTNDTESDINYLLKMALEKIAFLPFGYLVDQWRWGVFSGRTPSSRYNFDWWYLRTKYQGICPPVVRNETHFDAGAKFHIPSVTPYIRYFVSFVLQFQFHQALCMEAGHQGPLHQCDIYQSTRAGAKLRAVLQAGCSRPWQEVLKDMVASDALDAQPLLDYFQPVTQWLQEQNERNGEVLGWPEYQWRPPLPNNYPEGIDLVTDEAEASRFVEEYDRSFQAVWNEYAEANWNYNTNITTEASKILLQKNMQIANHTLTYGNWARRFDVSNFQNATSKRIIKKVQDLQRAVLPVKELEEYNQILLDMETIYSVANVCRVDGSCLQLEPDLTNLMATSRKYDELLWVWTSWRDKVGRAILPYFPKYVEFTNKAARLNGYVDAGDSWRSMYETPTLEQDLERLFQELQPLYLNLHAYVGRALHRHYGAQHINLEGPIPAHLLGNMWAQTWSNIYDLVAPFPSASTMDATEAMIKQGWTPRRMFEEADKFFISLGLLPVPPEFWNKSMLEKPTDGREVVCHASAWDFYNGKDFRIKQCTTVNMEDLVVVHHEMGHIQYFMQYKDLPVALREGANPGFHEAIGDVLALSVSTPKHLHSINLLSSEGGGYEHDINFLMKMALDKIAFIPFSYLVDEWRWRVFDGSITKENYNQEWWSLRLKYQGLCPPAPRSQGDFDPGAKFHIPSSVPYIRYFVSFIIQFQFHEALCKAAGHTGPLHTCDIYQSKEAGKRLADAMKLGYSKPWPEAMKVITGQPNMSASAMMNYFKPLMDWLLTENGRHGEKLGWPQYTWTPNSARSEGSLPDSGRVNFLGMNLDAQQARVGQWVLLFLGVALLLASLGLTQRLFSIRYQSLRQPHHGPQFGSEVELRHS

Cytochrome P450 2A6 = target: T4, Cytochrome P450 2A6 (Homo sapiens, UniProt P11509); conditions: bti-tn-5b1-4; also: in other assays of this panel Not Active means under 50% inhibition at 10 µM
T4 sequence (P11509 whole entry): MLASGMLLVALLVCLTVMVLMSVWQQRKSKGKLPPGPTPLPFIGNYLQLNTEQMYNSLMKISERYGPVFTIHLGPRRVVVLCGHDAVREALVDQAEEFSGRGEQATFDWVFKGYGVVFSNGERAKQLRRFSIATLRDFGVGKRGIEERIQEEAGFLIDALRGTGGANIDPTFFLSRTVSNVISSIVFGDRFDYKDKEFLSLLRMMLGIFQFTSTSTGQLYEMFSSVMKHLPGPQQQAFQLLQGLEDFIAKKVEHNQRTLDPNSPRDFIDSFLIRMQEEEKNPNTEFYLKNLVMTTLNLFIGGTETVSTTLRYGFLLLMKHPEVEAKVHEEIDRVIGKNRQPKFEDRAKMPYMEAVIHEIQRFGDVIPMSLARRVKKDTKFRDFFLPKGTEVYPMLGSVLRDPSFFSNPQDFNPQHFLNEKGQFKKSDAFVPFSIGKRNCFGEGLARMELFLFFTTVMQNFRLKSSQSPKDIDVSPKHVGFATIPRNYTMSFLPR

D(3) dopamine receptor, sequence (P35462 whole entry): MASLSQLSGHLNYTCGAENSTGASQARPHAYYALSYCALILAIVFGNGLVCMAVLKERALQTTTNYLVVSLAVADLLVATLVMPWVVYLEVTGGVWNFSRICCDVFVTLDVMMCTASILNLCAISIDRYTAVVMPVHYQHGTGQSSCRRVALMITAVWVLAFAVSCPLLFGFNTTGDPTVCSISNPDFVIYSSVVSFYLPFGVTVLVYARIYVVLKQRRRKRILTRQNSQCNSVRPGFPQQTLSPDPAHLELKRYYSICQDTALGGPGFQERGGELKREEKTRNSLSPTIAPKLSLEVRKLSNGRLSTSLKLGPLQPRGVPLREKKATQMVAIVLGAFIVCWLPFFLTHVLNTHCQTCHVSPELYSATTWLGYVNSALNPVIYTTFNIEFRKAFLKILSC

COc1ccccc1C(=O)N1CCC(Cc2ccccc2)CC1
Not Active: IC50 [1] | IC50 (Thromboxane-A synthase) | IC50 (D(3) dopamine receptor) | IC50 [2] | IC50 (Cytochrome P450 2A6) | Ki (Cytochrome P450 2A6)

Cc1ccccc1C(=O)N1CCC(Cc2ccccc2)CC1
Not Active: IC50 [1] | IC50 (Thromboxane-A synthase) | IC50 (D(3) dopamine receptor) | IC50 [2] | IC50 (Cytochrome P450 2A6) | Ki (Cytochrome P450 2A6)

O=C1CC[C@H](N2C(=O)c3ccccc3C2=O)C(=O)N1
Not Active: IC50 [1] | IC50 (Thromboxane-A synthase) | IC50 (D(3) dopamine receptor) | IC50 [2] | IC50 (Cytochrome P450 2A6) | Ki (Cytochrome P450 2A6)

N=C(Nc1ccccc1)Nc1ccccc1
Not Active: IC50 [1] | IC50 (Thromboxane-A synthase) | IC50 (D(3) dopamine receptor) | IC50 [2] | IC50 (Cytochrome P450 2A6) | Ki (Cytochrome P450 2A6)

C[C@@H](O)[C@H](CO)NC(=O)[C@@H]1CSSC[C@H](NC(=O)[C@H](N)Cc2ccccc2)C(=O)N[C@@H](Cc2ccccc2)C(=O)N[C@H](Cc2c[nH]c3ccccc23)C(=O)N[C@@H](CCCCN)C(=O)N[C@@H]([C@@H](C)O)C(=O)N1 (H-[dF]CF[dW]KTC-{Threoninol(2S,3R)}; disulfide 2-7)
Not Active: IC50 [1] | IC50 (Thromboxane-A synthase) | IC50 (D(3) dopamine receptor) | IC50 [2] | IC50 (Cytochrome P450 2A6) | Ki (Cytochrome P450 2A6)

S=C=Nc1cccc2ccccc12 [1-NAPHTHYLISOTHIOCYANATE]
Not Active: IC50 [1] | IC50 (Thromboxane-A synthase) | IC50 (D(3) dopamine receptor) | IC50 [2] | IC50 (Cytochrome P450 2A6) | Ki (Cytochrome P450 2A6)

C[C@](O)(CS(=O)(=O)c1ccc(F)cc1)C(=O)Nc1ccc(C#N)c(C(F)(F)F)c1 [(R)-BICALUTAMIDE]
Not Active: IC50 [1] | IC50 (Thromboxane-A synthase) | IC50 (D(3) dopamine receptor) | IC50 [2] | IC50 (Cytochrome P450 2A6) | Ki (Cytochrome P450 2A6)

CCCC(=O)Nc1ccc(OCC(O)CNC(C)C)c(C(C)=O)c1 (stereo not given) [ACEBUTOLOL]
Not Active: IC50 [1] | IC50 (Thromboxane-A synthase) | IC50 (D(3) dopamine receptor) | IC50 [2] | IC50 (Cytochrome P450 2A6) | Ki (Cytochrome P450 2A6)

CC(=O)Nc1ccc(O)cc1 [ACETAMINOPHEN]
Not Active: IC50 [1] | IC50 (Thromboxane-A synthase) | IC50 (D(3) dopamine receptor) | IC50 [2] | IC50 (Cytochrome P450 2A6) | Ki (Cytochrome P450 2A6)

COc1cc2c(c3oc(=O)c4c(c13)CCC4=O)[C@@H]1C=CO[C@@H]1O2 [AFLATOXIN]
Not Active: IC50 [1] | Ki [1] | IC50 (Thromboxane-A synthase) | Ki (Thromboxane-A synthase) | IC50 (D(3) dopamine receptor) | Ki (D(3) dopamine receptor) | IC50 [2] | Ki [2] | IC50 (Cytochrome P450 2A6) | Ki (Cytochrome P450 2A6)

N=C(N)NC(=O)c1nc(Cl)c(N)nc1N [AMILORIDE]
Not Active: IC50 [1] | IC50 (Thromboxane-A synthase) | IC50 (D(3) dopamine receptor) | IC50 [2] | IC50 (Cytochrome P450 2A6) | Ki (Cytochrome P450 2A6)
